The results in this text go back to patent US20100223839A1, “SYSTEMS AND PROCESSES FOR PRODUCING BIO-FUELS FROM LIGNOCELLULOSIC MATERIALS” (WASHINGTON STATE UNIVERSITY, priority 2009, published 2010).

The subject of this experiment is Saccharomyces cerevisiae. Put plainly: Toxic effect of selected bio-oil model compounds on yeast growth (inhibition rate). Further details: inhibition rate: unit not given here. The format is cell-based. To be noted: for inhibition of yeast growth, summary in words: summary of Table 4. From the text:
The nature and the range of lethal concentrations of many of these toxic compounds was not well known. Thus, we carried out tests with model compounds to identify which of them were toxic to yeasts.
The toxic effects of selected bio-oil compounds (acetic acid, propanoic acid, cyclopentanone, 2-furaldehyde, furfuryl alcohol, phenol, eugenol, acetol, 2-(5H)-furanone, stilbene, vanillin, syringaldehyde, o-cresol) on Saccharomyces cerevisiae were studied.

[1] abbreviates: compound at 25% of CFBO (concentration found in bio-oils; Mallee fast pyrolysis oil, 500° C.).
[2] abbreviates: compound at 50% of CFBO (concentration found in bio-oils; Mallee fast pyrolysis oil, 500° C.).
Where [3] appears, read: compound at 75% of CFBO (concentration found in bio-oils; Mallee fast pyrolysis oil, 500° C.).
The mark [4] stands for this setting: compound at 100% of CFBO (concentration found in bio-oils; Mallee fast pyrolysis oil, 500° C.).

Take `O=C1C=CCO1` [2-(5H)-Furanone]: the “inhibition of yeast growth, summary in words” value (shortened to “inhibition of yeast growth”) is “also inhibitors but their inhibition rate is much lower”.

As to `O=Cc1ccco1` [2-furaldehyde], the “inhibition of yeast growth” value is “also inhibitors but their inhibition rate is much lower”. Still for that read-out and setting: next, `CC(=O)O` [Acetic acid]: “most lethal compounds inhibiting yeast growth”. As for `CC(=O)CO` [Acetol], the inhibition rate was 44.17 under setting [1], 77.80 under setting [2], 78.93 under setting [3] and 80.07 under setting [4]. For the molecule `C=CCc1ccc(O)c(OC)c1` [Eugenol], the “inhibition of yeast growth” value is given as “most lethal compounds inhibiting yeast growth”. Consider `OCc1ccco1` [Furfuryl alcohol], for which the “inhibition of yeast growth” value is “also inhibitors but their inhibition rate is much lower”. Turning to `Cc1ccccc1O` [O-cresol], the inhibition rate was 2.61 under setting [1], 14.16 under setting [2], 23.38 under setting [3] and 31.22 under setting [4]. On the same counts, the results for `Cc1ccccc1C` [O-xylol] are 5.01, 5.23, 5.33 and 5.44. In the case of `CCCCCCCCCCCCCCC` [Petadecane], the “inhibition of yeast growth” value is reported as “also inhibitors but their inhibition rate is much lower”. The same measure, in the same setting: next, `Oc1ccccc1` [Phenol]: “most lethal compounds inhibiting yeast growth”; `CCC(=O)O` [Propanoic acid]: “most lethal compounds inhibiting yeast growth”; `Oc1ccccc1O` [Pyrocatechol]: “most lethal compounds inhibiting yeast growth”. On the same count and under the same terms, the same measure for `COc1cc(C=O)cc(OC)c1O` [Syringaldehyde]: “most lethal compounds inhibiting yeast growth”. Same read-out and setting: the same measure for `CCCCCCCCCCCCCC` [Tetradecane]: “also inhibitors but their inhibition rate is much lower”. In the case of `COc1cc(C=O)ccc1O` [Vanillin], the “inhibition of yeast growth” value is “most lethal compounds inhibiting yeast growth”.
